Where two headings read alike, the source gives them in different places.
Experiments:
AKT1 WT = target: T1, AKT1 WT (Homo sapiens, UniProt P31749); assay: Live cell AKT1 WT target engagement by NanoBRET competitive probe displacement in HEK293 cells; assay type: binding; conditions: 2 h at 37° C., read-out: AKT1 WT IC50
T1 construct: expressed in transfected cells; host or cells: HEK293
Method: (§1) Determining live cell AKT1 E17K, AKT1 WT, and AKT2 target engagement by NanoBRET competitive probe displacement. […] Briefly, HEK293 cells were transfected with plasmids encoding kinase-NanoLuciferase fusion proteins overnight. Cells were then treated with serial dilutions of compound and an ˜EC50 concentration of fluorescently-tagged ATP-competitive tracer (Promega). After incubation for 2 h at 37° C., luciferase substrate and extracellular luciferase inhibitor were added to all wells, and luminescent intensity at 460 nm and 600 nm were measured on a multimode plate-reader. The ratio of E600/E460 was calculated to give the tracer engagement signal (BRET). IC50 values were calculated by fitting BRET values to a log(inhibitor) vs. response Hill equation.

AKT2 = target: T2, AKT2 (Homo sapiens, UniProt P31751); assay: Live cell AKT2 target engagement by NanoBRET competitive probe displacement in HEK293 cells; assay type: binding; conditions: 2 h at 37° C., read-out: AKT2 IC50
T2 construct: expressed in transfected cells; host or cells: HEK293
T2 sequence (P31751 whole entry): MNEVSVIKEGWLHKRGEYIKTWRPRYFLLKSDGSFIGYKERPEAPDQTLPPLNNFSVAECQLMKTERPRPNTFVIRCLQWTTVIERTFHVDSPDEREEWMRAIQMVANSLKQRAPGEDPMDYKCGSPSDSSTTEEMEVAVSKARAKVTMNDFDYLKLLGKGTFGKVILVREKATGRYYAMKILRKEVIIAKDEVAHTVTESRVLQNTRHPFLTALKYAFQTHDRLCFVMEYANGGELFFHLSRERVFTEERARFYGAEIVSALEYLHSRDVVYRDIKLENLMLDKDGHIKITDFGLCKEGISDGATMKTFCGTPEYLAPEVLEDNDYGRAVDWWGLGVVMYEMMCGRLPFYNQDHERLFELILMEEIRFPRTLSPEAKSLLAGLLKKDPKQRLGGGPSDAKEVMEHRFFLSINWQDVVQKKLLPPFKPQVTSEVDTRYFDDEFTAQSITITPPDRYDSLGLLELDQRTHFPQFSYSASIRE
Method: as §1

[1] = NanoBRET live cell target engagement, HEK293 cells
[2] = NanoBRET competitive probe displacement, live HEK293 cells

T1 sequence (P31749 whole entry): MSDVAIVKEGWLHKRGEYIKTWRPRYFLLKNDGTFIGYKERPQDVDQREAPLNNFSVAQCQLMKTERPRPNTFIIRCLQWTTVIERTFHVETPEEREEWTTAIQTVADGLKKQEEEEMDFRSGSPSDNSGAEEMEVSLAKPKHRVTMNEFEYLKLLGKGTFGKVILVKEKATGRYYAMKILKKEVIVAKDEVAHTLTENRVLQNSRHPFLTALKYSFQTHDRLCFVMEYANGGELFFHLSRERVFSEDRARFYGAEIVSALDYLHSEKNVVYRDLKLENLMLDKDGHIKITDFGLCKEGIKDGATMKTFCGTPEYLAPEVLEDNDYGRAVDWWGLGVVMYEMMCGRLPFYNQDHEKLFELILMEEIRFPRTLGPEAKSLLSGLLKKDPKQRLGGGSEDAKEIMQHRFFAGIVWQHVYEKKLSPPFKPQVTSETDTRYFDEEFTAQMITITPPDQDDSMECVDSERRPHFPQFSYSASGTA

SMILES	IC50 (AKT1 WT; [1]) [nM]	IC50 (AKT2; [1]) [nM]	IC50 (AKT1 WT; [2]) [nM]	IC50 (AKT2; [2]) [nM]
Cc1csc(-c2ccc3nc(-c4cccnc4N)n(-c4ccc5c(c4)CC[C@@H]5NC(=O)c4nccnc4C)c3n2)n1 [Compound 302]	20.9	456	–	–
Nc1ncccc1-c1nc2ccc(-n3ccc(Oc4ccccn4)n3)nc2n1-c1ccc2c(c1)CC[C@@H]2NC1CCN(C(=O)C2CC2)CC1 [Compound 574]	–	–	52.4	2420
CN1CC(Oc2ccn(-c3ccc4nc(-c5cccnc5N)n(-c5ccc6c(c5)CC[C@@H]6NC5CCN(C(=O)C6CC6)CC5)c4n3)n2)C1 [Compound 566]	–	–	10.5	246
Cc1ncccc1C(=O)N[C@H]1CCc2cc(-n3c(-c4cccnc4N)nc4c(C)cc(-n5cccn5)nc43)ccc21 [Compound 100]	17.2	24.9	–	–
Cc1ccc(C(=O)N[C@H]2CCc3cc(-n4c(-c5cccnc5N)nc5ccc(-n6ccc(OC(F)F)n6)nc54)ccc32)cn1 [Compound 535]	–	–	6.42	42.1
CS(=O)(=O)Nc1ccn(-c2ccc3nc(-c4cccnc4N)n(-c4ccc5c(c4)CC[C@@H]5NC4CCN(C(=O)C5CC5)CC4)c3n2)n1 [Compound 582]	–	–	> 1000	> 10000
Nc1ncccc1-c1nc2ccc(-n3nccn3)nc2n1-c1ccc2c(c1)CC[C@@H]2NC(=O)c1cnns1 [Compound 436]	–	–	40	4660
Cc1nccnc1C(=O)N[C@H]1CCc2cc(-n3c(-c4cccnc4N)nc4ccc(-c5cccc(N6CCN(C)CC6)c5)nc43)ccc21 [Compound 269]	3.21	9.39	–	–
Cc1ncccc1C(=O)N[C@H]1CCc2cc(-n3c(-c4cccnc4N)nc4ccc(N5CCOCC5)nc43)ccc21 [Compound 135]	83.1	1110	–	–
Cc1oncc1C(=O)N1CCC(N[C@H]2CCc3cc(-n4c(-c5cccnc5N)nc5ccc(-n6cccn6)nc54)ccc32)CC1 [Compound 489]	–	–	92.6	5410
Nc1ncccc1-c1nc2ccc(-n3cccn3)nc2n1-c1ccc2c(c1)CC[C@@H]2NC1CCc2ccncc21 (single isomer, unassigned) [Example 495, (S*)—N—((S)-5-(2-(2-aminopyridin-3-yl)-5-(1H-pyrazol-1-yl)-3H-imidazo[4,5-b]pyridin-3-yl)-2,3-dihydro-1H-inden-1-yl)-6,7-dihydro-5H-cyclopenta[c]pyridin-7-amine]	–	–	9.4	197
Nc1ncccc1-c1nc2ccc(C#CC3CC3)nc2n1-c1ccc2c(c1)CC[C@@H]2NC1CN(C(=O)C2CC2)C1 [Compound 506]	–	–	96.9	8940
COc1ccn(-c2ccc3nc(-c4cccnc4N)n(-c4ccc5c(c4)CC[C@@H]5NC4[C@@H]5COC[C@H]4CN(C(=O)C4CC4)C5)c3n2)n1 (single isomer, unassigned) [Compound 523]	–	–	48.4	1740

Continued, values first:

IC50 (AKT1 WT; [1]) [nM]	IC50 (AKT2; [1]) [nM]	IC50 (AKT1 WT; [2]) [nM]	IC50 (AKT2; [2]) [nM]	SMILES
40.9	830	–	–	Cc1ccc(C(=O)N[C@H]2CCc3cc(-n4c(-c5cccnc5N)nc5ccc(-n6cccn6)nc54)ccc32)c(C(F)F)n1 [Compound 167]
58.4	1390	–	–	COc1cc(C(=O)N[C@H]2CCc3cc(-n4c(-c5cccnc5N)nc5ccc(-n6cccn6)nc54)ccc32)nn1C [Compound 216]
58.2	2600	–	–	COc1cncc(C(=O)N[C@H]2CCc3cc(-n4c(-c5cccnc5N)nc5ccc(-n6cccn6)nc54)ccc32)n1 [Compound 348]
13.5	46.6	–	–	CC(=O)Nc1ccc(C(=O)N[C@H]2CCc3cc(-n4c(-c5cccnc5N)nc5ccc(-n6cccn6)nc54)ccc32)cn1 [Compound 232]
56.9	2690	–	–	Cn1nc(C(=O)N[C@H]2CCc3cc(-n4c(-c5cccnc5N)nc5ccc(-n6cccn6)nc54)ccc32)cc1C#N [Compound 214]
554	2850	–	–	Nc1ncccc1-c1nc2ccc(-n3cccn3)nc2n1-c1ccc2c(c1)CC[C@@H]2NC(=O)c1ccc2[nH][nH]c(=O)c2c1 [Compound 189]
5.82	59.3	–	–	Nc1ncccc1-c1nc2ccc(-n3cccn3)nc2n1-c1ccc2c(c1)CC[C@@H]2NC(=O)c1cccc(CO)c1 [Compound 240]
